{"source": "patent US11007199B2", "about": "“Compositions and methods for ameliorating pain and reducing fever” (The Board of Supervisors of Louisiana State University and …, priority 2017, dated 2021)", "key": {"CD-1 male mice [1]": {"system": "CD-1 male mice", "test": "Acetic acid-induced abdominal writhing assay", "format": "in vivo", "procedure": "Acetic acid-induced abdominal writhing assay. Contraction of the abdominal muscle and stretching of the hind limbs is induced as a response to intraperitoneal (ip) injection of an acetic acid solution, as described Hendershot and Forsaith, 1959. In this model of visceral pain, abdominal contractions (writhing) is induced in mice by an ip injection of 0.4% acetic acid at a dose of 10 mL/Kg, 25 min after drug administration. The number of writhes is counted for 10 min beginning 5 min after acetic acid injection.\nAll groups have been compared to vehicle and differences analyzed by one-way ANOVA followed by Sidak's multiple comparison post hoc test."}, "CD1 male mice": {"system": "CD1 male mice", "test": "Tail-flick assay", "details": "in vivo analgesia model, FIG. 8; per os at 40 mg/kg", "procedure": "Tail-flick assay. Analgesic effect of drugs was determined by using the reaction time (latency) of mice to thermal stimulation of the tail tip. All animals (CD1 male mice) were fasted overnight (with free access to water) and their baseline tail flick latency (seconds) was recorded twice for each mouse using an IITC Tail Flick Analgesia Meter.\nAfter measurement of baseline latency, drugs were administered per os at 40 mg/kg to animals belonging to the treatment groups. At 30 minutes post injection, tail flick latency was recorded again, twice for each mouse, to determine total change in latency. Mice were subjected to cold shock by dipping their tails into ice-cold water at 4° C.\nPercentage of maximum analgesia for each mouse were calculated with the formula, Percentage Analgesia=100*{[(Latency to tail flick after drug injection)−(Latency to tail flick at baseline)]/[(12 sec cutoff time)−(Baseline latency)]}. Data expressed as mean±SEM, n=10."}, "rats": {"system": "rats", "test": "Von Frey analgesia assay", "details": "in vivo analgesia model, FIG. 8; IP injection", "procedure": "Von Frey analgesia assay. Twenty rats are brought into the eVF room and allowed to acclimate to the room for 30 minutes. At the 30 minute mark, saline injections begin. 30 minutes after the saline injection, the eVF readings of the rats are taken by applying the filament of the eVF machine to the center of the bottom of the hind paws (left and right) of each rat. The filament uses a magnet to remain attached to the probe, which measures the pressure in grams applied to the filament. The pressure readout is then recorded from the transducer.\nAfter saline injections, a drug is injected (different compound each day). In the same manner as saline injections, at the 30 minute mark after each drug injection, eVF readings of each rat are taken.\nDrug Injection/Concentration: All drugs and saline were administered by intraperitoneal (IP) injection. Each injection was 1 mL/kg of body weight (i.e., 463 g rat received 0.463 mL of injection). Four doses on a logarithmic scale for ApAP w ere used. 10 mg/kg, 32 mg/kg, 100 mg/kg, and 320 mg/kg."}, "CD-1 male mice [2]": {"system": "CD-1 male mice", "test": "Baker yeast-induced hyperthermia (antipyresis)", "format": "in vivo", "details": "50 mg/kg bw p.o., baker's yeast-induced fever, FIG. 5", "procedure": "The antipyretic effect of the compounds was assessed utilizing baker yeast-induced hyperthermia. All animals (CD-1 male mice weighing between 45-50 g) were fasted overnight (with free access to water) and their baseline temperature was recorded using a Cole-[…] rectal thermometer probe. […] (206% […].); (Groups 5-6) DEA salt-Brewer's yeast soln. (20% w/v) (i.p.) and DEA Salt (50 mg/kg bw) (p.o.). Two hours post-injection, rectal temperatures were recorded once again, to determine total change in body temperature. Percentage Change in body temperature is calculated with the formula, Percentage Change=[(Total change in body temperature)/(Base temperature)*100]. Data is expressed as mean±SEM, n=10."}, "hepatocytes": {"system": "hepatocytes", "test": "Hepatotoxicity (LDH assay, GSH assay)", "format": "cell-based", "details": "FIG. 6", "procedure": "LDH assay. Using the Pierce LDH Cytotoxicity assay kit from Thermo Scientific, cells were incubated in presence of various drug compounds, followed by collection of the medium supernatant. Release of LDH was measured in 96 well plate formats. The absorbance was measured at 490 nm and 680 nm and the final result was absorbance observed at 680 nm subtracted from absorbance observed at 490 nm (A490nw-A680nm).\nGSH assay. Using the ThiolTracker Violet Glutathione Detection reagent from Molecular Probes (Invitrogen), after hepatocytes were incubated in the presence of various compounds, incubation medium was removed, cells rinsed with D-PBS conditioned medium followed by incubation with pre-warmed ThiolTracker Violet dye (working solution prepared as per manufacturer's instructions) for 30 minutes. Fluorescence was measured at the following wavelengths: excitation (404 nm) and emission (526 nm). The finalized result was expressed as relative fluorescence units (RFU), which indicates the cellular level of reduced glutathione (GSH) in intact cells.\nHepatotoxicity results for the inventive DEA salt compound are shown m FIG. 6."}}, "note": "Entries after “also recorded” stand apart in the source; their conditions may differ."}
{"smiles": "CCNCC.O=C(CNS(=O)(=O)c1ccccc1C(=O)O)Nc1ccc(O)cc1", "note": "[DEA salt, 2-[[2-(4-hydroxyanilino)-2-oxo-ethyl]sulfamoyl]benzoate diethylammonium salt]", "values": [{"measurement": "calculated 50% effective dose (ED50) based on the writhing assay", "setting": "CD-1 male mice [1]; CD-1 male mice, per os, ip 0.4% acetic acid", "value": 10.3, "unit": "mg/kg"}, {"measurement": "number of writhes induced by injection of acetic acid", "setting": "CD-1 male mice [1]; FIG. 8, vehicle only nearly 40", "value": "under 20"}, {"measurement": "reducing pain versus ApAP, acetic acid-induced abdominal writhing", "setting": "CD-1 male mice [1]; in vivo analgesia model, FIG. 8", "value": "comparable to ApAP in reducing pain"}, {"measurement": "reducing pain versus ApAP, tail flick assay", "setting": "CD1 male mice", "value": "comparable to ApAP in reducing pain"}, {"measurement": "reducing pain versus ApAP, Von Frey assay", "setting": "rats", "value": "comparable to ApAP in reducing pain"}, {"measurement": "antipyretic effect versus ApAP", "setting": "CD-1 male mice [2]", "value": "antipyretic effect comparable to ApAP"}, {"measurement": "hepatotoxicity versus ApAP", "setting": "hepatocytes", "value": "minimal hepatotoxicity; also recorded: decreased toxicity"}]}
